{"source": "patent US20040185566A1", "about": "“Polypeptides toxic to nematodes and methods of use” (priority 2003, published 2004)", "key": {"SMP #1": {"biological_target": "SMP #1 (Serratia marcescens, UniProt P23694, N428Q/P266L)", "sequence (P23694 17-487 P266L/N428Q)": "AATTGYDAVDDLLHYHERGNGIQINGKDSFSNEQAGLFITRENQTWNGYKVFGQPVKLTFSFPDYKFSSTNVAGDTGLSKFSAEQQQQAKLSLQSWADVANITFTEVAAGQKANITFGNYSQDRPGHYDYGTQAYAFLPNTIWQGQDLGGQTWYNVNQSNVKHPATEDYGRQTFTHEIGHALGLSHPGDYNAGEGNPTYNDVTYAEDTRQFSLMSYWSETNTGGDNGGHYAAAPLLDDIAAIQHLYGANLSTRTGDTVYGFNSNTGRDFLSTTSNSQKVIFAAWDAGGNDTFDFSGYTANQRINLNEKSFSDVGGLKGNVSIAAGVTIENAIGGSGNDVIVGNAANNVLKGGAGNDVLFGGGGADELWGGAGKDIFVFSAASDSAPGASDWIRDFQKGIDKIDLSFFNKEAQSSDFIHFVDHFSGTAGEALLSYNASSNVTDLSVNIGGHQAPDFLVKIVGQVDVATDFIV", "assay_type": "biochemical, S. marcescens NRRL B-23112"}, "A. suum": {"tested_on": "A. suum", "test": "Assay for lytic activity against live A. suum", "conditions": "A. suum"}, "R. similis": {"tested_on": "R. similis", "test": "Assay for lytic activity against R. similis (microtiter plates)", "assay_type": "in vivo", "procedure": "The assays were performed in microtiter plates. Ten microliters of R. similissuspensions were placed in microtiter plate wells. Serially diluted SMP #1 (100U in 0.1 ml stock) was added to the wells. PBS was added to a series of wells containing R. similis as a control. The nematodes were stored at 20° C. and examined for lytic effects or death at 48 and 96 hours."}}, "note": "Read-outs that look alike come from different tables or passages of the source."}
{"molecule": "CC(C)C[C@H](NC(=O)[C@H]1O[C@@H]1C(=O)O)C(=O)NCCCCN=C(N)N", "note": "[E-64]", "values": [{"measurement": "inhibition of SMP #1 proteolytic activity", "setting": "SMP #1; E-64 20 μg/ml", "value": "not inhibited"}]}
{"molecule": "O=C(O)CN(CCN(CC(=O)O)CC(=O)O)CC(=O)O", "note": "[EDTA]", "values": [{"measurement": "inhibition of SMP #1 proteolytic activity", "setting": "SMP #1; EDTA 9μg/ml", "value": "inhibited"}]}
{"molecule": "Cl.NCCc1ccc(S(=O)(=O)F)cc1", "note": "[Pefabloc SC]", "values": [{"measurement": "inhibition of SMP #1 proteolytic activity", "setting": "SMP #1; Pefabloc SC 2000 μ/ml", "value": "not inhibited"}]}
{"molecule": "aprotinin", "values": [{"measurement": "inhibition of SMP #1 proteolytic activity", "setting": "SMP #1; aprotinin 4 μg/ml", "value": "not inhibited"}]}
{"molecule": "serratiopeptidase [SMP #2, reference compound]", "values": [{"measurement": "lysis / mortality of the nematode on contact", "setting": "A. suum", "value": "does not lyse or cause significant mortality"}, {"measurement": "Dead (nematodes counted)", "setting": "R. similis; 10 U/well, 10 wells, 20° C.", "value": 109}, {"measurement": "Live (nematodes counted)", "setting": "R. similis; 10 U/well, 10 wells, 20° C.", "value": 175}, {"measurement": "% mortality", "setting": "R. similis; 10 U/well, 10 wells, 20° C., significant difference (p < 0.05) between treatments", "value": 38, "unit": "%"}, {"measurement": "lysis / mortality of the nematode on contact", "setting": "R. similis; R. similis", "value": "does not lyse or cause significant mortality"}]}
